“And” between values parts separate entries of the source, which are not always exact repeats. Identical values can stand only once. Like-named read-outs stand apart in the source and are kept apart here.
Target: HIV-1LAI envelope gp120 (Human immunodeficiency virus type 1 group M subtype B, UniProt P03377)
Type: binding
Conditions: for Binding Results For Window Length (counts bound-background), 9 / Binding Results For Window Length (counts bound-background), 12 / Binding Results For Window Length (counts bound-background), 15 / Binding Results For Window Length (counts bound-background), 18: STRL33 amino terminus; for Binding Results For Window Length (counts bound-background), 9: 9-mer starting at the first residue of the printed sequence; for Binding Results For Window Length (counts bound-background), 12: 12-mer starting at the first residue of the printed sequence; for Binding Results For Window Length (counts bound-background), 15: 15-mer starting at the first residue of the printed sequence; for Binding Results For Window Length (counts bound-background), 18: 18-mer starting at the first residue of the printed sequence
[1] = Panel D, 9-mers and 12-mers of CD4, empty control […]
[2] = Panel B, 15-mers and 18-mers of CD4, empty control 575
[3] = STRL33 18-mer scan, background subtracted, first of two count columns
[4] = STRL33 18-mer scan, background subtracted, second of two count columns
[5] = Panel F, sequential alanine replacements of CD4 polypeptides, duplicate series, empty control 569
[6] = Panel E, 9-mers and 12-mers of CD4, empty control 571

With DRYLAIVHATNSQRPRKL the “radioactive counts recorded in twenty minutes” value (“radioactive counts recorded” below) (CXCR4 18-mer scan, background subtracted, empty control 0) was 168 counts and the “radioactive counts recorded” value (CXCR4 18-mer scan, empty control 412) was 580 counts.
In the case of DRYLAVVHAVFALKARTV, the “Counts per 20′ Average-background” value (CCR5 18-mer scan, radiolabeled HIV-1LAI gp120, background subtracted) is reported as 62 counts per 20′.
For DSDTYICEV, the “COUNTS of radiolabeled gp120 retained” value [1] was 712 counts.
With DSDTYICEVEDQ the “COUNTS of radiolabeled gp120 retained” value [1] was 937 counts.
In the case of DSDTYICEVEDQKEE, the “COUNTS of radiolabeled gp120 retained” value [2] is reported as 973 counts.
With DSDTYICEVEDQKEEVQL the “COUNTS of radiolabeled gp120 retained” value [2] was 961 counts.
With DSSQEEHQAFLQFSK the “Binding Results For Window Length (counts bound-background), 9” value (background subtracted) was 147 counts, the “Binding Results For Window Length (counts bound-background), 12” value (background subtracted) was 882 counts and the “Binding Results For Window Length (counts bound-background), 15” value (background subtracted) was 4588 counts.
With “DSSQEEHQAFLQFSKVFL [STRL33 segment 17-34]” the “radioactive counts recorded” value [3] was 869.5 counts and the “radioactive counts recorded” value [4] was 2152.5 counts.
DTHLLQGQS was tested, and the “COUNTS of radiolabeled gp120 retained” value [1] was 578 counts.
In the case of DTHLLQGQSLTL, the “COUNTS of radiolabeled gp120 retained” value [1] is reported as 527 counts.
For DTHLLQGQSLTLTLE, the “COUNTS of radiolabeled gp120 retained” value [2] was 1622 counts.
DTYICEVED was tested, and the “COUNTS of radiolabeled gp120 retained” value [1] was 1043 counts.
With DTYICEVEDQKE the “COUNTS of radiolabeled gp120 retained” value [1] was 720 counts.
DTYICEVEDQKEEVQ was tested, and the “COUNTS of radiolabeled gp120 retained” value [2] was 1071 counts.
In the case of DTYICEVEDQKEEVQLLV, the “COUNTS of radiolabeled gp120 retained” value [2] is reported as 1648 counts.
With “DYGFSSFNDSSQEEHQAF [STRL33 segment 9-26]” the “radioactive counts recorded” value [3] was 8579.5 counts, the “radioactive counts recorded” value [4] was 8909.5 counts and the “Binding Results For Window Length (counts bound-background), 9” value (background subtracted) was 701 counts. For the same sequence, the “Binding Results For Window Length (counts bound-background), 12” value (background subtracted) was 573 counts, the “Binding Results For Window Length (counts bound-background), 15” value (background subtracted) was 595 counts and the “Binding Results For Window Length (counts bound-background), 18” value (background subtracted) was 440 counts.
For “DYHEDYGFSSFNDSSQEE [STRL33 segment 5-22]”, the “radioactive counts recorded” value [3] was 3357.5 counts, the “radioactive counts recorded” value [4] was 3689.5 counts and the “Binding Results For Window Length (counts bound-background), 9” value (background subtracted) was 851 counts. For the same sequence, the “Binding Results For Window Length (counts bound-background), 12” value (background subtracted) was 1554 counts, the “Binding Results For Window Length (counts bound-background), 15” value (background subtracted) was 1240 counts and the “Binding Results For Window Length (counts bound-background), 18” value (background subtracted) was 1191 counts.
For “EAISTVVLATQMTLGFFL [STRL33 segment 185-202]”, the “radioactive counts recorded” value [3] was 3973.5 counts and the “radioactive counts recorded” value [4] was 3745.5 counts.
EAVQLLVFGLTANSD was tested, and the “COUNTS of radiolabeled gp120 retained” value [5] was 14220 counts and 13213 counts.
In the case of EDQKEEVQL, the “COUNTS of radiolabeled gp120 retained” value [1] is reported as 564 counts.
With EDQKEEVQLLVF the “COUNTS of radiolabeled gp120 retained” value [1] was 1379 counts.
With EDQKEEVQLLVFGLT the “COUNTS of radiolabeled gp120 retained” value [2] was 3633 counts.
In the case of EDQKEEVQLLVFGLTANS, the “COUNTS of radiolabeled gp120 retained” value [2] is reported as 3416 counts.
For EDSDTYICE, the “COUNTS of radiolabeled gp120 retained” value [1] was 650 counts.
For EDSDTYICEVED, the “COUNTS of radiolabeled gp120 retained” value [1] was 956 counts.
In the case of EDSDTYICEVEDQKE, the “COUNTS of radiolabeled gp120 retained” value [2] is reported as 815 counts.
In the case of EDSDTYICEVEDQKEEVQ, the “COUNTS of radiolabeled gp120 retained” value [2] is reported as 788 counts.
For EDYGFSSFNDSSQEEHQA, the “Binding Results For Window Length (counts bound-background), 9” value (background subtracted) was 953 counts, the “Binding Results For Window Length (counts bound-background), 12” value (background subtracted) was 817 counts and the “Binding Results For Window Length (counts bound-background), 15” value (background subtracted) was 1152 counts. For the same sequence, the “Binding Results For Window Length (counts bound-background), 18” value (background subtracted) was 548 counts.
In the case of EEAQLLVFGLTANSD, the “COUNTS of radiolabeled gp120 retained” value [5] is reported as 18124 counts and 16296 counts.
For EEHQAFLQFSKV, the “Binding Results For Window Length (counts bound-background), 9” value (background subtracted) was 6060 counts and the “Binding Results For Window Length (counts bound-background), 12” value (background subtracted) was 5598 counts.
With “EEHQAFLQFSKVFLPCMY [STRL33 segment 21-38]” the “radioactive counts recorded” value [3] was 2316.5 counts and the “radioactive counts recorded” value [4] was 1819.5 counts.
With EEVALLVFGLTANSD the “COUNTS of radiolabeled gp120 retained” value [5] was 10890 counts and 13415 counts.
EEVQALVFGLTANSD was tested, and the “COUNTS of radiolabeled gp120 retained” value [5] was 11258 counts and 12603 counts.
For EEVQLAVFGLTANSD, the “COUNTS of radiolabeled gp120 retained” value [5] was 11954 counts and 13690 counts.
With EEVQLLAFGLTANSD the “COUNTS of radiolabeled gp120 retained” value [5] was 13317 counts and 16286 counts.
In the case of EEVQLLVAGLTANSD, the “COUNTS of radiolabeled gp120 retained” value [5] is reported as 9573 counts and 11480 counts.
For EEVQLLVFALTANSD, the “COUNTS of radiolabeled gp120 retained” value [5] was 19348 counts and 18254 counts.
With EEVQLLVFG the “COUNTS of radiolabeled gp120 retained” value [1] was 3170 counts.
EEVQLLVFGATANSD was tested, and the “COUNTS of radiolabeled gp120 retained” value [5] was 19978 counts and 10408 counts.
With EEVQLLVFGLAANSD the “COUNTS of radiolabeled gp120 retained” value [5] was 18863 counts and 19973 counts.
With EEVQLLVFGLTA the “COUNTS of radiolabeled gp120 retained” value [1] was 3261 counts.
EEVQLLVFGLTAASD was tested, and the “COUNTS of radiolabeled gp120 retained” value [5] was 19200 counts and 19390 counts.
With EEVQLLVFGLTANAD the “COUNTS of radiolabeled gp120 retained” value [5] was 17928 counts and 17684 counts.
In the case of EEVQLLVFGLTANSA, the “COUNTS of radiolabeled gp120 retained” value [5] is reported as 22206 counts and 18227 counts.
With EEVQLLVFGLTANSD the “COUNTS of radiolabeled gp120 retained” value [2] was 6423 counts, the “COUNTS of radiolabeled gp120 retained” value [5] was 18721 counts and 18582 counts and 19738 counts and 21338 counts and the “COUNTS of radiolabeled gp120 retained” value (Panel G, alanine replacements and serial truncations (Z) of CD4 polypeptides, empty control 580) was 18040 counts and 23357 counts.
In the case of EEVQLLVFGLTANSDTHL, the “COUNTS of radiolabeled gp120 retained” value [2] is reported as 783 counts.
For EEVQLLVFGLTTNSD, the “COUNTS of radiolabeled gp120 retained” value [5] was 20021 counts and 20100 counts.
EFKIDIVVL was tested, and the “COUNTS of radiolabeled gp120 retained” value [6] was 665 counts.
EFKIDIVVLAFQ was tested, and the “COUNTS of radiolabeled gp120 retained” value [6] was 659 counts.

From patent publication US20030068615A1, “Polypeptides that bind HIV gp120 and related nucleic acids, antibodies, compositions, and methods of use” (priority 1999, published 2003)
